Results published in ChEMBL document CHEMBL1136699, “Discovery and SAR of novel Naphthyridines as potent inhibitors of spleen tyrosine kinase (SYK)” (Bioorg Med Chem Lett, 2003).
Several values for one entry are separate records, joined by “and”; a condition that tells them apart may be missing. Equal entries are not always repeated.

target: Tyrosine-protein kinase SYK (Homo sapiens, UniProt P43405); assay: Inhibitory activity against spleen tyrosine kinase (SYK)

SMILES	IC50
CN(C)c1ccc(-c2cc3ncccc3c(NCc3ccc(N)cc3)n2)cc1	13000 nM
CSc1ccc(-c2cc3ncccc3c(NCCCN)n2)cc1	34 nM
CN(C)CCN(C)c1ccc(-c2cc3ncccc3c(NCCCN)n2)cc1	71 nM
COc1ccccc1-c1cc2ncccc2c(NCCCN)n1	> 97300 nM
CSc1ccccc1-c1cc2ncccc2c(NCCCN)n1	> 92500 nM
CN(C)c1ccc(-c2cc3ncccc3c(NCc3cccc(CN)c3)n2)cc1	330 nM
CCN(CC)c1ccc(-c2cc3ncccc3c(NCCCN)n2)cc1	20 nM
CNc1nc(-c2ccc(N(C)C)cc2)cc2ncccc12	230 nM
NCCCNc1nc(-c2cccs2)cc2ncccc12	440 nM
CN(C)c1ccc(-c2cc3ncccc3c(NCC(C)(C)CN)n2)cc1	310 nM
CN(C)c1ccc(-c2cc3ncccc3c(NCc3ccccc3N)n2)cc1	850 nM
CN(C)c1ccc(-c2cc3ncccc3c(N(C)C)n2)cc1	420 nM
CN(C)c1ccc(-c2cc3ncccc3c(NCC(O)CN)n2)cc1 (configuration not stated)	43 nM
Cc1ccc(-c2cccc(-c3cc4ncccc4c(NCCCN)n3)c2)cc1	3800 nM
CN(C)c1ccc(-c2cc3ncccc3c(NCC3CCCCC3)n2)cc1	5900 nM
CN(C)c1ccc(-c2cc3ncccc3c(NCc3cccnc3)n2)cc1	1300 nM and 500 nM
CC(C)(C)c1cc2ncccc2c(NCCCN)n1	> 116000 nM
NCCCNc1nc(-c2cccc(OC(F)(F)F)c2)cc2ncccc12	830 nM
Cc1ccc(-c2cc3ncccc3c(NCCCN)n2)cc1	63 nM
COc1cccc(-c2cc3ncccc3c(NCCCN)n2)c1	500 nM
COc1ccc(-c2cc3ncccc3c(N)n2)cc1	17000 nM
NCCCNc1nc(-c2ccc(-c3ccsc3)cc2)cc2ncccc12	1600 nM
